Results reported in ChEMBL document CHEMBL1629601, “In vitro susceptibility of field isolates of Leishmania donovani to Miltefosine and amphotericin B: correlation with sodium antimony gluconate susceptibility and implications for treatment in areas of endemicity” (2009).
Values after ≈ are worked out from the molar mass of the structure shown.

Columns and labels:
Assay type in all cases: functional
Conditions in all cases: read-out: ED50 (the source's name)
[1] = test system: Leishmania donovani; experiment: Antimicrobial activity against Leishmania donovani K481 amastigote
[2] = test system: Leishmania donovani; experiment: Antimicrobial activity against Leishmania donovani LdAG83 amastigote
[3] = test system: Leishmania donovani; experiment: Antimicrobial activity against Leishmania donovani K80 amastigote
[4] = test system: Leishmania donovani; experiment: Antimicrobial activity against Leishmania donovani K80 promastigote
[5] = test system: Leishmania donovani; experiment: Antimicrobial activity against Leishmania donovani K439 amastigote
[6] = test system: Leishmania donovani; experiment: Antimicrobial activity against Leishmania donovani K251 amastigote
[7] = test system: Leishmania donovani; experiment: Antimicrobial activity against Leishmania donovani K133 promastigote
[8] = test system: Leishmania donovani; experiment: Antimicrobial activity against Leishmania donovani K135 promastigote
[9] = test system: Leishmania donovani; experiment: Antimicrobial activity against Leishmania donovani K516 amastigote
[10] = test system: Leishmania donovani; experiment: Antimicrobial activity against Leishmania donovani K135 amastigote
[11] = test system: Leishmania donovani; experiment: Antimicrobial activity against Leishmania donovani K417 promastigote
[12] = test system: Leishmania donovani; experiment: Antimicrobial activity against Leishmania donovani K509 amastigote
[13] = test system: Leishmania donovani; experiment: Antimicrobial activity against Leishmania donovani K216 promastigote
[14] = test system: Leishmania donovani; experiment: Antimicrobial activity against Leishmania donovani K439 promastigote
[15] = test system: Leishmania donovani; experiment: Antimicrobial activity against Leishmania donovani K149 promastigote
[16] = test system: Leishmania donovani; experiment: Antimicrobial activity against Leishmania donovani K111 amastigote
[17] = test system: Leishmania donovani; experiment: Antimicrobial activity against Leishmania donovani K111 promastigote
[18] = test system: Leishmania donovani; experiment: Antimicrobial activity against Leishmania donovani K132 promastigote
[19] = test system: Leishmania donovani; experiment: Antimicrobial activity against Leishmania donovani K149 amastigote
[20] = test system: Leishmania donovani; experiment: Antimicrobial activity against Leishmania donovani K417 amastigote
[21] = test system: Leishmania donovani; experiment: Antimicrobial activity against Leishmania donovani K132 amastigote
[22] = test system: Leishmania donovani; experiment: Antimicrobial activity against Leishmania donovani LdAG83 promastigote
[23] = test system: Leishmania donovani; experiment: Antimicrobial activity against Leishmania donovani K251 promastigote
[24] = test system: Leishmania donovani; experiment: Antimicrobial activity against Leishmania donovani K59 promastigote
[25] = test system: Leishmania donovani; experiment: Antimicrobial activity against Leishmania donovani K498 promastigote
[26] = test system: Leishmania donovani; experiment: Antimicrobial activity against Leishmania donovani K481 promastigote
[27] = test system: Leishmania donovani; experiment: Antimicrobial activity against Leishmania donovani K192 promastigote
[28] = test system: Leishmania donovani; experiment: Antimicrobial activity against Leishmania donovani K131 amastigote
[29] = test system: Leishmania donovani; experiment: Antimicrobial activity against Leishmania donovani K192 amastigote
[30] = test system: Leishmania donovani; experiment: Antimicrobial activity against Leishmania donovani K435 promastigote
[31] = test system: Leishmania donovani; experiment: Antimicrobial activity against Leishmania donovani K131 promastigote
[32] = test system: Leishmania donovani; experiment: Antimicrobial activity against Leishmania donovani K216 amastigote
[33] = test system: Leishmania donovani; experiment: Antimicrobial activity against Leishmania donovani K435 amastigote
[34] = test system: Leishmania donovani; experiment: Antimicrobial activity against Leishmania donovani K516 promastigote
[35] = test system: Leishmania donovani; experiment: Antimicrobial activity against Leishmania donovani K429 amastigote
[36] = test system: Leishmania donovani; experiment: Antimicrobial activity against Leishmania donovani K498 amastigote
[37] = test system: Leishmania donovani; experiment: Antimicrobial activity against Leishmania donovani K133 amastigote
[38] = test system: Leishmania donovani; experiment: Antimicrobial activity against Leishmania donovani K59 amastigote
[39] = test system: Leishmania donovani; experiment: Antimicrobial activity against Leishmania donovani K429 promastigote

C[C@@H]1[C@H](O)[C@@H](C)/C=C/C=C/C=C/C=C/C=C/C=C/C=C/[C@H](O[C@@H]2O[C@H](C)[C@@H](O)[C@H](N)[C@@H]2O)C[C@@H]2O[C@](O)(C[C@@H](O)C[C@@H](O)[C@H](O)CC[C@@H](O)C[C@@H](O)CC(=O)O[C@H]1C)C[C@H](O)[C@H]2C(=O)O [AMPHOTERICIN B]
EC50 [1]: 0.55 µg/mL (≈ 0.595 µM) | EC50 [2]: 0.017 µg/mL (≈ 0.0184 µM) | EC50 [3]: 0.18 µg/mL (≈ 0.195 µM) | EC50 [4]: 0.5 µg/mL (≈ 0.541 µM) | EC50 [5]: 0.77 µg/mL (≈ 0.833 µM) | EC50 [6]: 0.55 µg/mL (≈ 0.595 µM) | EC50 [7]: 0.65 µg/mL (≈ 0.703 µM) | EC50 [8]: 0.31 µg/mL (≈ 0.335 µM) | EC50 [9]: 0.62 µg/mL (≈ 0.671 µM) | EC50 [10]: 0.25 µg/mL (≈ 0.271 µM) | EC50 [11]: 0.69 µg/mL (≈ 0.747 µM) | EC50 [12]: 0.65 µg/mL (≈ 0.703 µM) | EC50 [13]: 0.52 µg/mL (≈ 0.563 µM) | EC50 [14]: 1.62 µg/mL (≈ 1.75 µM) | EC50 [15]: 1.46 µg/mL (≈ 1.58 µM) | EC50 [16]: 0.2 µg/mL (≈ 0.216 µM) | EC50 [17]: 1.02 µg/mL (≈ 1.1 µM) | EC50 [18]: 1.22 µg/mL (≈ 1.32 µM) | EC50 [19]: 0.28 µg/mL (≈ 0.303 µM) | EC50 [20]: 0.44 µg/mL (≈ 0.476 µM) | EC50 [21]: 0.22 µg/mL (≈ 0.238 µM) | EC50 [22]: 0.023 µg/mL (≈ 0.0249 µM) | EC50 [23]: 1.42 µg/mL (≈ 1.54 µM) | EC50 [24]: 0.5 µg/mL (≈ 0.541 µM) | EC50 [25]: 1.16 µg/mL (≈ 1.26 µM) | EC50 [26]: 0.69 µg/mL (≈ 0.747 µM) | EC50 [27]: 0.78 µg/mL (≈ 0.844 µM) | EC50 [28]: 0.35 µg/mL (≈ 0.379 µM) | EC50 [29]: 0.67 µg/mL (≈ 0.725 µM) | EC50 [30]: 0.57 µg/mL (≈ 0.617 µM) | EC50 [31]: 0.43 µg/mL (≈ 0.465 µM) | EC50 [32]: 0.25 µg/mL (≈ 0.271 µM) | EC50 [33]: 0.17 µg/mL (≈ 0.184 µM) | EC50 [34]: 1.26 µg/mL (≈ 1.36 µM) | EC50 [35]: 0.37 µg/mL (≈ 0.4 µM) | EC50 [36]: 0.54 µg/mL (≈ 0.584 µM) | EC50 [37]: 0.21 µg/mL (≈ 0.227 µM) | EC50 [38]: 0.18 µg/mL (≈ 0.195 µM) | EC50 [39]: 1.34 µg/mL (≈ 1.45 µM)
